Reference: the supplement of paper PMC10307832

Tests used:
Test in all cases: relative viability (nuclei count vs DMSO), 5 days (fraction); higher = more cells survive
QS11 + Bortezomib = compound: C1CC2=C(C1)C=C(C=C2)OC3=NC(=C4C(=N3)N(C=N4)CC5=CC=C(C=C5)C6=CC=CC=C6)N[C@@H](CC7=CC=CC=C7)CO [QS11] + CC(C)C[C@H](NC(=O)[C@H](Cc1ccccc1)NC(=O)c1cnccn1)B(O)O [Bortezomib] (partner 0.002 µM)
Outline: (§1)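 Values are medians from duplicate plates. Each reflects relative viability, defined as the nuclei count of treated wells over that of vehicle wells. Lung cancer cell lines in 1536-well plates were pin-tool dosed one day after seeding with one drug alone or with a fixed anchor-drug dose plus five library-drug doses (not always all listed) in √10 steps, then fixed, stained and imaged at 4× after 5 days.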

QS11 + Linsitinib = compound: C1CC2=C(C1)C=C(C=C2)OC3=NC(=C4C(=N3)N(C=N4)CC5=CC=C(C=C5)C6=CC=CC=C6)N[C@@H](CC7=CC=CC=C7)CO [QS11] + C[C@]1(O)C[C@@H](c2nc(-c3ccc4ccc(-c5ccccc5)nc4c3)c3c(N)nccn32)C1 [Linsitinib] (partner 1 µM)
Outline: as §1

QS11 + Phenformin = compound: C1CC2=C(C1)C=C(C=C2)OC3=NC(=C4C(=N3)N(C=N4)CC5=CC=C(C=C5)C6=CC=CC=C6)N[C@@H](CC7=CC=CC=C7)CO [QS11] + N=C(N)NC(=N)NCCc1ccccc1 [Phenformin] (partner 250 µM)
Outline: as §1

Darinaparsin + Dasatinib = compound: C[As](C)SC[C@H](NC(=O)CC[C@H](N)C(=O)O)C(=O)NCC(=O)O [Darinaparsin] + Cc1nc(Nc2ncc(C(=O)Nc3c(C)cccc3Cl)s2)cc(N2CCN(CCO)CC2)n1 [Dasatinib] (partner 0.075 µM)
Outline: as §1

Row | Cell Line | relative viability (QS11 + Bortezomib; first compound 0.08 µM) | relative viability (QS11 + Bortezomib; first compound 0.253 µM) | relative viability (QS11 + Bortezomib; first compound 0.8 µM) | relative viability (QS11 + Bortezomib; first compound 2.53 µM) | relative viability (QS11 + Bortezomib; first compound 8 µM) | relative viability (QS11 + Linsitinib; first compound 0.08 µM) | relative viability (QS11 + Linsitinib; first compound 0.253 µM) | relative viability (QS11 + Linsitinib; first compound 0.8 µM) | relative viability (QS11 + Linsitinib; first compound 2.53 µM) | relative viability (QS11 + Linsitinib; first compound 8 µM) | relative viability (QS11 + Phenformin; first compound 0.08 µM) | relative viability (QS11 + Phenformin; first compound 0.253 µM) | relative viability (QS11 + Phenformin; first compound 0.8 µM) | relative viability (QS11 + Phenformin; first compound 2.53 µM) | relative viability (QS11 + Phenformin; first compound 8 µM) | relative viability (Darinaparsin + Dasatinib; first compound 0.08 µM) | relative viability (Darinaparsin + Dasatinib; first compound 0.8 µM) | relative viability (Darinaparsin + Dasatinib; first compound 2.53 µM) | relative viability (Darinaparsin + Dasatinib; first compound 8 µM)
1 | SW 1573 | 0.957 | 1.07 | 0.971 | 1.12 | 0.837 | 0.837 | 0.729 | 0.824 | 0.817 | 0.696 | 0.407 | 0.374 | 0.413 | 0.442 | 0.346 | 0.498 | 0.625 | 0.299 | 0.656
2 | PC-14 | 0.7 | 0.887 | 0.979 | 0.741 | 0.731 | 1.04 | 1.08 | 0.758 | 0.906 | 0.901 | 0.384 | 0.49 | 0.574 | 0.683 | 0.737 | 0.189 | 0.24 | 0.245 | 0.211
3 | LC-2-ad | 0.987 | 1.03 | 0.651 | 0.962 | 1.1 | 0.791 | 0.832 | 0.699 | 0.817 | 0.829 | 0.535 | 0.482 | 0.535 | 0.551 | 0.599 | 0.683 | 0.628 | 0.454 | 0.466
4 | 201T | 1.12 | 1.09 | 0.921 | 1.16 | 0.961 | 1.01 | 1.01 | 0.847 | 1.01 | 0.888 | 0.468 | 0.399 | 0.4 | 0.414 | 0.376 | 0.571 | 0.533 | 0.66 | 0.627
5 | NCI-H2023 | 0.917 | 0.996 | 0.877 | 0.994 | 0.898 | 0.729 | 0.545 | 0.57 | 0.713 | 0.803 | 0.304 | 0.473 | 0.411 | 0.457 | 0.459 | 0.724 | 0.656 | 0.352 | 0.729
6 | HOP-62 | 0.718 | 1.01 | 0.728 | 0.594 | 0.652 | 0.784 | 1.05 | 0.852 | 0.616 | 0.913 | 0.677 | 0.743 | 0.657 | 0.497 | 0.669 | 0.708 | 0.786 | 0.434 | 0.693
7 | NCI-H661 | 0.718 | 0.685 | 0.685 | 0.912 | 0.919 | 0.522 | 0.681 | 0.556 | 0.408 | 0.549 | 0.221 | 0.297 | 0.273 | 0.297 | 0.261 | 0.981 | 0.772 | 0.89 | 0.948
8 | NCI-H1734 | 0.932 | 0.913 | 0.848 | 0.822 | 0.738 | 0.897 | 0.988 | 0.851 | 0.825 | 0.848 | 0.391 | 0.397 | 0.389 | 0.374 | 0.375 | 0.461 | 0.441 | 0.44 | 0.49
9 | EKVX | 0.941 | 1.09 |  | 1.07 | 1.1 | 1.04 | 0.995 |  | 1.02 | 0.982 | 0.228 | 0.224 |  | 0.228 | 0.255 | 0.504 | 0.488 | 0.53 | 0.512
10 | NCI-H1355 | 1.2 | 1.19 | 0.862 | 1.21 | 1.13 | 0.762 | 0.791 | 0.671 | 0.84 | 0.712 | 0.445 | 0.444 | 0.457 | 0.418 | 0.457 | 0.717 | 0.69 | 0.596 | 0.689
11 | H3255 | 0.813 | 0.782 |  | 0.761 | 0.746 | 0.954 | 0.97 |  | 0.973 | 1.03 | 0.341 | 0.351 |  | 0.418 | 0.363 | 0.355 | 0.346 | 0.317 | 0.338
12 | NCI-H23 | 1.03 | 0.926 | 0.978 | 0.722 | 1 | 0.624 | 0.528 | 0.561 | 0.477 | 0.404 | 0.769 | 0.779 | 0.853 | 0.678 | 0.877 | 0.909 | 0.836 | 0.714 | 0.843
13 | NCI-H1755 | 0.953 | 0.893 | 0.605 | 0.76 | 0.61 | 1.07 | 0.577 | 0.595 | 0.814 | 0.871 | 0.594 | 0.649 | 0.502 | 0.533 | 0.51 | 0.438 | 0.448 | 0.346 | 0.468
14 | NCI-H650 | 0.681 | 0.625 | 0.815 | 0.819 | 0.888 | 0.81 | 0.943 | 0.859 | 0.87 | 0.929 | 0.428 | 0.486 | 0.475 | 0.392 | 0.399 | 0.529 | 0.515 | 0.42 | 0.486
15 | NCI-H1437 | 0.569 | 0.325 | 0.459 | 0.402 | 0.336 | 1.12 | 1.26 | 0.698 | 0.771 | 0.86 | 0.302 | 0.225 | 0.285 | 0.334 | 0.283 | 0.482 | 0.375 | 0.286 | 0.48
16 | NCI-H460 | 1.04 | 1.13 | 0.819 | 0.973 | 0.345 | 0.874 | 0.976 | 0.725 | 0.479 | 0.073 | 0.556 | 0.498 | 0.477 | 0.442 | 0.227 | 0.632 | 0.478 | 0.473 | 0.721
17 | HARA | 1.25 | 1.19 |  | 1.05 | 1.24 | 0.965 | 1.02 |  | 0.912 | 1.19 | 0.368 | 0.448 |  | 0.479 | 0.63 | 0.3 | 0.282 | 0.232 | 0.259
18 | NCI-H2085 | 0.952 | 1.03 | 1.16 | 1.06 | 1 | 0.885 | 1.19 | 1.01 | 0.959 | 1.07 | 0.707 | 0.681 | 0.671 | 0.726 | 0.844 | 0.238 | 0.25 | 0.235 | 0.223
19 | RERF-LC-KJ | 1.05 | 1.1 | 0.956 | 0.932 | 0.941 | 0.933 | 0.929 | 0.854 | 0.868 | 0.782 | 0.407 | 0.41 | 0.438 | 0.378 | 0.315 | 0.916 | 0.87 | 0.621 | 0.758
20 | HCC-78 | 0.478 | 0.484 | 0.457 | 0.486 | 0.544 | 0.517 | 0.528 | 0.463 | 0.579 | 0.514 | 0.788 | 0.722 | 0.725 | 0.871 | 0.798 | 0.382 | 0.384 | 0.375 | 0.386
21 | NCI-H2087 | 0.766 | 0.776 | 0.677 | 0.636 | 0.48 | 1.01 | 1.15 | 0.845 | 0.655 | 0.708 | 0.479 | 0.46 |  | 0.521 | 0.657 | 1.11 | 0.906 | 0.793 | 1.52
22 | SK-LU-1 | 1.03 | 1.11 | 1.09 | 1.16 | 1.29 | 1.1 | 1.08 | 0.989 | 0.71 | 0.732 | 0.527 | 0.557 | 0.587 | 0.404 | 0.456 | 0.173 | 0.107 | 0.173 | 0.183
23 | EMC-BAC-2 | 1.06 | 1.05 | 0.941 | 0.985 | 0.677 | 0.825 | 0.826 | 0.728 | 0.815 | 0.73 | 0.519 | 0.579 | 0.53 | 0.463 | 0.44 | 0.34 | 0.368 | 0.302 | 0.35
24 | A-427 | 0.852 | 0.96 |  | 0.999 | 0.858 | 1.12 | 1.1 |  | 1.14 | 1.09 | 0.286 | 0.358 |  | 0.34 | 0.363 | 0.843 | 0.809 | 0.707 | 0.733
25 | NCI-H727 | 0.804 | 0.72 | 0.893 | 0.739 | 0.35 | 0.287 | 0.296 | 0.338 | 0.316 | 0.289 | 0.88 | 0.442 | 0.459 | 0.557 | 0.372 | 0.401 | 0.356 | 0.414 | 0.416
26 | COR-L23 | 1.08 | 1.13 | 0.86 | 0.942 | 0.765 | 0.938 | 1.01 | 0.767 | 0.784 | 0.625 | 0.461 | 0.452 | 0.44 | 0.39 | 0.366 | 0.694 | 0.493 | 0.39 | 0.497
27 | PC-3 [JPC-3] | 0.827 | 0.88 | 0.767 | 0.828 | 0.678 | 0.939 | 0.978 | 0.964 | 0.947 | 0.97 | 0.446 | 0.476 | 0.461 | 0.489 | 0.431 | 1.11 | 1 | 0.826 | 1.01
28 | NCI-H520 |  | 0.593 | 0.541 | 0.479 | 0.471 |  | 0.986 | 1.09 | 1.18 | 1.11 | 0.476 | 0.687 | 0.607 | 0.489 | 0.574 | 0.215 | 0.237 | 0.189 | 0.212
29 | NCI-H1563 | 0.822 | 0.825 | 0.853 | 0.769 | 0.722 | 1.16 | 1.3 | 1.26 | 1.34 | 1.32 | 0.661 | 0.682 | 0.723 | 0.637 | 0.624 | 0.379 | 0.442 | 0.5 | 0.479
